pKi: −log10 of the molar value.
How the values were obtained:
[1] = target: T1, NMDA (N-methyl-D-aspartate) receptors (Rattus norvegicus, UniProt P35439); assay: Binding of 3H-5,7-dichlorokynurenic acid (displacement from rat cerebra membrane material); conditions: displacement of 3H-5,7-dichlorokynurenic acid, rat cerebra membranes, pH 7.4, on ice 30 minutes
T1 construct: isolated membrane material from rat cerebra; from tissue; host or cells: rat cerebrum membranes
Procedure: (§1) The pharmacological activity of the compounds I according to the invention was investigated on isolated membrane material from rat cerebra. To do this, the membrane material was treated in the presence of the compounds according to the invention with the radiolabeled substances ^3 H-2-amino-3-hydroxy-5-methyl-4-isoxazolepropionic acid (^3 H-AMPA) and ^3 H-5,7-dichlorokynurenic acid, these binding to specific receptors (AMPA and NMDA (N-methyl-D-aspartate) receptors respectively). Subsequently the radioactivity on the treated membranes was measured by scintillation counting. The amounts of bound ^3 H-AMPA and ^3 H-5,7-dichlorokynurenic acid, or in each case the amounts of these radiolabeled substances displaced, were determined from the bound radioactivity. The dissociation constant KI (I=inhibitor) which results from this and which is a measure of the displacing effect of the active substance according to the invention was found by iterative non-linear regression analysis using the statistical analysis system (SAS) on an IBM computer similar to the "ligand" program of P. J. Munson and D. Rodbard (Analytical Biochem., […], Ligand: Versatile Computerized Approach for Characterization of Ligand Binding Systems).
2. Binding of ^3 H-5,7-dichlorokynurenic acid
To prepare the membrane material, freshly removed rat cerebra were homogenized together with about 10 times the volume of a buffer solution A composed of 50 mM TRIS-HCl and 10 mM EDTA, pH 7.4. The suspension was centrifuged at 48,000 g for 20 minutes. […]
For the binding assay, the protein material was thawed at 37° C. and washed twice by centrifuging at 48,000 g (20 minutes) and subsequently suspending in a buffer solution B composed of 50 mM TRIS-HCl, pH 7.4. […] The radioactivity of the ^3 H-5,7-dichlorokynurenic acid bound to the membranes in the sediment was measured, and the KI was obtained by subjecting the displacement plots to regression analysis.

AMPA receptors = assay: Binding of 3H-AMPA (displacement from rat cerebra membrane material); conditions: displacement of 3H-AMPA, rat cerebra membranes, pH 7.1, on ice 60 minutes
Procedure: as §1
1. Binding of ^3 H-2-amino-3-hydroxy-5-methyl-4-isoxazolepropionic acid (^3 H-AMPA)
To prepare the membrane material, freshly removed rat cerebra were homogenized together with 15 times the volume of a buffer solution A composed of 30 mM α,α,α-tris(hydroxymethyl)methylamine hydrochloride (TRIS-HCl) and 0.5 mM ethylenediaminetetraacetic acid (EDTA), pH 7.4, using an Ultra-Turrax. […]
For the binding assay, the protein material was thawed at 37° C. and washed twice by centrifuging at 48,000 g (20 minutes) and subsequently suspending in a buffer solution B composed of 50 mM TRIS-HCl, 0.1M potassium thiocyanate and 2.5 mM calcium chloride, pH 7.1. […] The radioactivity of the bound ^3 H-AMPA in the membrane material was measured by scintillation counting and then the KI was determined by subjecting the displacement plots to regression analysis.

| Compound | pKi [1] | pKi (AMPA receptors) |
| --- | --- | --- |
| Cc1cc2nc(=O)n3[nH]c(C(=O)O)nc3c2cc1C [8,9-Dimethyl-1,2,4-triazolo[1,5-c]-quinazolin-5-one-2-carboxylic acid] | 7.05 |  |
| O=C(O)c1nc2c3c(Cl)cc(Cl)cc3nc(=O)n2[nH]1 [8,10-Dichloro-1,2,4-triazolo[1,5-c]-quinazolin-5-one-2-carboxylic acid] | 6.70 | 5.89 |
| O=C(O)c1nc2c3ccc([N+](=O)[O-])cc3nc(=O)n2[nH]1 [8-Nitro-1,2,4-triazolo[1,5-c]-quinazolin-5-one-2-carboxylic acid] |  | 5.59 |
| O=C(O)c1nc2c3ccc(C(F)(F)F)cc3nc(=O)n2[nH]1 [8-Trifluoromethyl-1,2,4-triazolo[1,5-c]-quinazolin-5-one-2-carboxylic acid] |  | 5.85 |
| CCOC(=O)c1nc2c3cc(C)c(C)cc3nc(=O)n2[nH]1 [Ethyl 8,9-dimethyl-1,2,4-triazolo-[1,5-c]-quinazolin-5-one-2-carboxylate] | 6.80 |  |

— patent US5612344A, “Triazoloquinazolines for the treatment of central nervous disorders” (BASF Aktiengesellschaft, priority 1992, dated 1997)
